Broadly, the IC50 is the concentration at which inhibition is half-maximal. High values mean weaker potency in that assay, low ones greater potency in that assay.

Type in all cases: biochemical
Test [1] deals with T1, Full length Akt1 (Homo sapiens, UniProt P31749).
T1 construct: Full length Akt1 (cat #P2999); purchased PerkinElmer P2999
Description: In vitro Akt kinase enzymatic assay (HTRF), Akt1. The conditions noted are these: 0.4 nM Akt1, substrate solution with 5 mM ATP, 25° C. 1 hr. As for the experimental part: (§1) Compounds herein were tested for inhibitory activity of Akt targets according to the following in vitro assay. Full length Akt1 (cat #P2999), Akt2 (cat #PV3184), Akt3 (cat #PV3185), peptide substrate, Ulight-Crosstide (cat #TRF0106-M), Ultra-Europium anti-phospho-Crosstide (cat #TRF-0202-M), and 10×LANCE detection buffer (cat #CR97-100) were purchased from PerkinElmer. In general, assay buffer conditions were chosen based on obtaining optimal enzymatic and linear activities. The assay buffer contains 50 mM HEPES, 10 mM MgCl2, 5 mM DTT, 0.005% Tween20 at pH 7.8. Compound stock (0.001 mM) was prepared in DMSO. The compound plate was prepared by 3-fold and 11-point serial dilutions. 0.5 μL of the compound in DMSO was transferred from the compound plate to the assay plate. Enzyme solution (0.4 nM of Akt1, 0.6 nM of Akt2 or 0.6 nM of Akt3) was prepared in the assay buffer. Note that the enzyme concentration given is based on the given stock concentration reported by the vendor. 0.1 μM substrate solution was prepared in the assay buffer with addition of 5 mM ATP. 10 μL of the enzyme solution was added to the assay plate and then 10 μL of substrate solution was added to the assay plate. The plate was protected from light and the reaction was incubated at 25° C. for 1 hr. The reaction was stopped by adding 10 μL of a solution containing 30 mM EDTA, and 3 nM Ultra Europium anti-phospho Crosstide in 1× detection buffer. The plate was incubated for 15-30 min at room temperature and HTRF (homogenous time resolved fluorescence) was measured on a plate reader. Percentage of inhibition was calculated for each concentration and IC50 value was generated from curve fitting. See Table 8 for data related to compounds of the examples.
For orientation: TR-FRET usually uses a lanthanide donor and a delayed reading to cut background.

For test [2], the target named is T2, Full length Akt2 (Homo sapiens, UniProt P31751).
T2 construct: Full length Akt1 (cat #P2999), Akt2 (cat #PV3184); purchased PerkinElmer PV3184
In words: In vitro Akt kinase enzymatic assay (HTRF), Akt2. The conditions noted are these: 0.6 nM Akt2, substrate solution with 5 mM ATP, 25° C. 1 hr. As for the experimental part: as §1

Test [3] concerns the target T3, Full length Akt3 (Homo sapiens, UniProt Q9Y243).
T3 construct: Full length Akt1 (cat #P2999), Akt2 (cat #PV3184), Akt3 (cat #PV3185); purchased PerkinElmer PV3185
In words: In vitro Akt kinase enzymatic assay (HTRF), Akt3. The conditions noted are these: 0.6 nM Akt3, substrate solution with 5 mM ATP, 25° C. 1 hr. As for the experimental part:
as §1

Test [4] addresses T4, Full length PKA (Homo sapiens, UniProt P17612).
T4 construct: Full length PKA (cat #P2912); purchased Invitrogen P2912
Description: PKA in vitro enzymatic assay (HTRF). The conditions noted are these: 0.035 nM enzyme solution, substrate solution with 5 mM ATP, 25° C. 1 hr. As for the experimental part: Full length PKA (cat #P2912), peptide substrate, fluorescein CREBtide peptide (cat #PV3508), Tb-Crebtide p-S133 Ab (cat #PV3566), and Lanthascreen TR-FRET Dilution Buffer stored (part # PV3574) were purchased from Invitrogen. In general, assay buffer conditions were chosen based on obtaining optimal and linear enzymatic activities. The assay buffer contains 50 mM HEPES, 10 mM MgCl2, 5 mM DTT, 0.005% Tween20 at pH 7.8. Compound stock (0.001 mM) was prepared in DMSO. The compound plate was prepared by 3-fold and 11-point serial dilutions. 0.5 μL of the compound in DMSO was transferred from the compound plate to the assay plate. 0.035 nM enzyme solution was prepared in the assay buffer. Note that the enzyme concentration given is based on the given stock concentration reported by the vendor. 0.1 μM substrate solution was prepared in the assay buffer with addition of 5 mM ATP. 10 μL of the enzyme solution was added to the assay plate and then 10 μL of substrate solution was added to the assay plate. The plate was protected from light and the reaction was incubated at 25° C. for 1 hr. The reaction was stopped by adding 10 μL of a solution containing 30 mM EDTA, and 1.5 nM Tb-Crebtide p-S133 Ab in 1× detection buffer. The plate was incubated for 15-30 min at room temperature and HTRF (homogenous time resolved fluorescence) was measured on a plate reader. Percentage of inhibition was calculated for each concentration and IC50 value was generated from curve fitting. See Table 8 for data related to compounds of the examples.

T3 sequence (Q9Y243 whole entry): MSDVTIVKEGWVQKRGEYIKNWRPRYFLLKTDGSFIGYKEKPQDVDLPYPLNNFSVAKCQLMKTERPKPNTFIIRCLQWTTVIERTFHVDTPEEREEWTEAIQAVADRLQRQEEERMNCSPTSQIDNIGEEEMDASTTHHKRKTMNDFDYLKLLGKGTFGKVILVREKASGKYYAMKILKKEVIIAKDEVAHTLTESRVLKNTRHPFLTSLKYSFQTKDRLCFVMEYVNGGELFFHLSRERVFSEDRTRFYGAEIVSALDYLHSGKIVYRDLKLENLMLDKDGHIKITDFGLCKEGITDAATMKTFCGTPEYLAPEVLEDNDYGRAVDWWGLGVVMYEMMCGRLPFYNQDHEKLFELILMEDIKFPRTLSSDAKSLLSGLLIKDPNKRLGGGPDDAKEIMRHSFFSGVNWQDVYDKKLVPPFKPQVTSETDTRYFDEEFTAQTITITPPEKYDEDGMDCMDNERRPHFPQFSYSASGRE
T2 sequence (P31751 whole entry): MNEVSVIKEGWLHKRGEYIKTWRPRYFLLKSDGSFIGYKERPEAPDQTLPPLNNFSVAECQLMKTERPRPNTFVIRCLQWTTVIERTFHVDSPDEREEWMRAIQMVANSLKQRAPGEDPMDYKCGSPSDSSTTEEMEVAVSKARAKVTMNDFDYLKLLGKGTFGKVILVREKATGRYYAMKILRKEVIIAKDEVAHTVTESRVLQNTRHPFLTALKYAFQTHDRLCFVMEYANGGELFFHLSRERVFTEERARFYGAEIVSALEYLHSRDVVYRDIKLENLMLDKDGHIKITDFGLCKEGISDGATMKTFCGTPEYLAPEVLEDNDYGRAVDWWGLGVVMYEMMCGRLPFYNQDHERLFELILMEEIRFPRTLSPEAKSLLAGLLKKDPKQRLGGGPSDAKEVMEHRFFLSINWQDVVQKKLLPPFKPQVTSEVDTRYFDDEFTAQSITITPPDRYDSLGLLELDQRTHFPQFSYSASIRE
T1 sequence (P31749 whole entry): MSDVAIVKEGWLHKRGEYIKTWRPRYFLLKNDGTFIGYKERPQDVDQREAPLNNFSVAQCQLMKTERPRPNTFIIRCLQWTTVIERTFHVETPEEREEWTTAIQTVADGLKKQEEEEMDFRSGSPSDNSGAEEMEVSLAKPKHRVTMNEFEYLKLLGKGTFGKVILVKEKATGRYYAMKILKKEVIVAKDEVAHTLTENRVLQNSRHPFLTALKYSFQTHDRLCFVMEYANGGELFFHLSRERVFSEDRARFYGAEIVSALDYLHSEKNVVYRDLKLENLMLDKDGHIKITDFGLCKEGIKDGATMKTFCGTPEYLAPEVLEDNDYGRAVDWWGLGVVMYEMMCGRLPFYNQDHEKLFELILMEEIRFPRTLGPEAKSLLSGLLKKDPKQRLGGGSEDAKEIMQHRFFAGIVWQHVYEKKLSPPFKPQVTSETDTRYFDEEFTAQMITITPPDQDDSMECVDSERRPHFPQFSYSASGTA

In the case of `CN(C)C[C@H](Cc1cccc(F)c1)N1Cc2cc(-c3c(Cl)cnn3C)ccc2C1=O` [Example 38, 5-(4-chloro-1-methyl-1H-pyrazol-5-yl)-2-[(1S)-2-(dimethylamino)-1-(3-fluorobenzyl)ethyl]isoindolin-1-one], the IC50 in test [1] was 0.5 to 5 µM; in test [2], above 5 µM; in test [3] it was above 5 µM; in test [4], above 5 µM.
Turning to `COc1ncccc1-c1cnn(C)c1-c1ccc2c(c1)CN([C@H](CN)Cc1cccc(F)c1)C2=O` [Example 27, 2-[(1S)-2-amino-1-(3-fluorobenzyl)ethyl]-5-[4-(2-methoxypyridin-3-yl)-1-methyl-1H-pyrazol-5-yl]isoindolin-1-one], the IC50 in test [1], in test [2], in test [3] and in test [4] was above 5 µM each time.
On to `Cn1nccc1-c1ccc2c(n1)CN([C@H](CN)Cc1cccc(F)c1)C2=O` [Example 110, 6-[(1S)-2-amino-1-(3-fluorobenzyl)ethyl]-2-(1-methyl-1H-pyrazol-5-yl)-6,7-dihydro-5H-pyrrolo[3,4-b]pyridin-5-one], for which the IC50 in test [1] is below 0.5 µM; in test [2], 0.5 to 5 µM; in test [3], 0.5 to 5 µM; in test [4], above 5 µM.
Consider `Cn1ncc(-c2nccs2)c1-c1ccc2c(c1)CN([C@H](CN)Cc1cccc(F)c1)C2=O` [Example 20, 2-[(1S)-2-amino-1-(3-fluorobenzyl)ethyl]-5-[1-methyl-4-(1,3-thiazol-2-yl)-1H-pyrazol-5-yl]isoindolin-1-one], for which the 50% inhibitory concentration (IC50) in test [1] was below 0.5 µM; in test [2], 0.5 to 5 µM; in test [3], 0.5 to 5 µM; in test [4], above 5 µM.
Take `Cn1nccc1-c1ccc2c(c1)CN([C@H](CN)CC1CC1)C2=O` [Example 136, 2-[(1S)-2-amino-1-(cyclopropylmethyl)ethyl]-5-(1-methyl-1H-pyrazol-5-yl)isoindolin-1-one]: the IC50 in test [1] is below 0.5 µM; in test [2], 0.5 to 5 µM; in test [3] it was above 5 µM; in test [4], above 5 µM.
As for `COc1ccc(C(CN)N2Cc3cc(-c4ccnn4C)ccc3C2=O)cc1` (centres unmarked) [Example 120, 2-[2-amino-1-(4-methoxyphenyl)ethyl]-5-(1-methyl-1H-pyrazol-5-yl)isoindolin-1-one], the IC50 in test [1], in test [2], in test [3] and in test [4] was above 5 µM throughout.
Regarding `Cn1ncc(Cl)c1-c1ccc2c(c1)CN([C@H](CN)Cc1cccc(-c3ccsc3)c1)C2=O` [Example 71, 2-{(1S)-2-amino-1-[3-(3-thienyl)benzyl]ethyl}-5-(4-chloro-1-methyl-1H-pyrazol-5-yl)isoindolin-1-one], the IC50 was below 0.5 µM in test [1], 0.5 to 5 µM in test [2], 0.5 to 5 µM in test [3] and above 5 µM in test [4].
For the molecule `Cn1ncc(-c2ccc3ccccc3c2)c1-c1ccc2c(c1)CN([C@H](CN)Cc1cccc(F)c1)C2=O` [Example 21, 2-[(1S)-2-amino-1-(3-fluorobenzyl)ethyl]-5-[1-methyl-4-(2-naphthyl)-1H-pyrazol-5-yl]isoindolin-1-one], the IC50 in test [1] is 0.5 to 5 µM; in test [2] it was above 5 µM; in test [3], below 0.5 µM; in test [4], above 5 µM.
As for `CNC(=O)c1ccc(-c2cnn(C)c2-c2ccc3c(c2)CN([C@H](CN)Cc2cccc(F)c2)C3=O)cn1` [Example 29, 5-(5-{2-[(1S)-2-amino-1-(3-fluorobenzyl)ethyl]-1-oxo-2,3-dihydro-1H-isoindol-5-yl}-1-methyl-1H-pyrazol-4-yl)-N-methylpyridine-2-carboxamide], the IC50 is 0.5 to 5 µM in test [1], above 5 µM in test [2], above 5 µM in test [3] and above 5 µM in test [4].
As to `Cn1ncc(-c2ccsc2)c1-c1ccc2c(c1)CN([C@H](CN)Cc1cccc(F)c1)C2=O` [Example 16, 2-[(1S)-2-amino-1-(3-fluorobenzyl)ethyl]-5-[1-methyl-4-(3-thienyl)-1H-pyrazol-5-yl]isoindolin-1-one], the IC50 was 0.5 to 5 µM in test [1], 0.5 to 5 µM in test [2], below 0.5 µM in test [3] and above 5 µM in test [4].
Regarding `Cn1ncc(Cl)c1-c1ncc2c(n1)CN([C@H](CN)Cc1ccccc1)C2=O` [Example 113, 6-[(1S)-2-amino-1-benzyl-ethyl]-2-(4-chloro-1-methyl-1H-pyrazol-5-yl)-6,7-dihydro-5H-pyrrolo[3,4-d]pyrimidin-5-one], the IC50 in test [1] was below 0.5 µM; in test [2], 0.5 to 5 µM; in test [3], 0.5 to 5 µM; in test [4], above 5 µM.
Consider `Cn1ncc(Cl)c1-c1ccc2c(c1)CN([C@H](CNC1CCCC1)Cc1cccc(F)c1)C2=O` [Example 35, 5-(4-chloro-1-methyl-1H-pyrazol-5-yl)-2-[(1S)-2-(cyclopentylamino)-1-(3-fluorobenzyl)ethyl]isoindolin-1-one], for which the IC50 in test [1] is below 0.5 µM; in test [2] it was 0.5 to 5 µM; in test [3], 0.5 to 5 µM; in test [4] it was above 5 µM.
Consider `CCN(CC)C[C@H](Cc1cccc(F)c1)N1Cc2cc(-c3c(Cl)cnn3C)ccc2C1=O` [Example 39, 5-(4-chloro-1-methyl-1H-pyrazol-5-yl)-2-[(1S)-2-(diethylamino)-1-(3-fluorobenzyl)ethyl]isoindolin-1-one], for which the IC50 in test [1] is below 0.5 µM; in test [2], above 5 µM; in test [3] it was 0.5 to 5 µM; in test [4], above 5 µM.
As to `Cn1ncc(Cl)c1-c1ccc2c(c1)CN([C@H](CNC1CCC1)Cc1cccc(F)c1)C2=O` [Example 34, 5-(4-chloro-1-methyl-1H-pyrazol-5-yl)-2-[(1S)-2-(cyclobutylamino)-1-(3-fluorobenzyl)ethyl]isoindolin-1-one], the IC50 in test [1] is below 0.5 µM; in test [2] it was 0.5 to 5 µM; in test [3] it was 0.5 to 5 µM; in test [4], above 5 µM.
On to `CNC[C@H](Cc1cccc(F)c1)N1Cc2cc(-c3c(Cl)cnn3C)ccc2C1=O` [Example 30, 5-(4-chloro-1-methyl-1H-pyrazol-5-yl)-2-[(1S)-1-(3-fluorobenzyl)-2-(methylamino)ethyl]isoindolin-1-one], for which the IC50 was below 0.5 µM in test [1], 0.5 to 5 µM in test [2], 0.5 to 5 µM in test [3] and above 5 µM in test [4].
In the case of `Cn1ncc(Cl)c1-c1ccc2c(c1)CN([C@H](CN)Cc1ccc(C#N)cc1)C2=O` [Example 63, 4-{(2S)-3-amino-2-[5-(4-chloro-1-methyl-1H-pyrazol-5-yl)-1-oxo-1,3-dihydro-2H-isoindol-2-yl]propyl}benzonitrile], the IC50 in test [1] was below 0.5 µM; in test [2], 0.5 to 5 µM; in test [3], 0.5 to 5 µM; in test [4], above 5 µM.
As for `Cn1ncc(Cl)c1-c1ccc2c(c1)CN([C@H](CN)CC1CC1)C2=O` [Example 137, 2-[(1S)-2-amino-1-(cyclopropylmethyl)ethyl]-5-(4-chloro-1-methyl-1H-pyrazol-5-yl)isoindolin-1-one], the IC50 in test [1] is 0.5 to 5 µM; in test [2], 0.5 to 5 µM; in test [3] it was 0.5 to 5 µM; in test [4], above 5 µM.

Values taken from patent US8895571B2, “Isoindolinone and pyrrolopyridinone derivatives as Akt inhibitors” (Incyte Corporation, priority 2011, dated 2014).
